# Source: US20230257374A1, “NOVEL KRAS G12C PROTEIN INHIBITOR, PREPARATION METHOD THEREFOR, AND USE THEREOF” (INNOVENT BIOLOGICS (SUZHOU) CO., LTD., priority 2019, published 2023)
# How the values were obtained:
# [1] = test system: NCI-H358 tumor (K-RAS G12C mutation); format: in vivo, BALB/c nude mice
# Procedure: The cells were digested with trypsin-EDTA twice a week for passaging as per conventional practice. When the cell saturation reached 80%-90% and a required amount was achieved, the cells were collected and counted for later use. […] 5% DMSO/5% Solutol/90% water was used as a blank control. 3) Tumor inoculation and drug administration: BALB/c nude mice, female, 6-8 weeks old, weighing 18-20 g. The experiment started after 3-7 days of adaptive feeding. 0.1 mL of NCI-H358 cells (5×10^6 cells) were inoculated subcutaneously on the right back of each mouse. The mice were grouped for administration when the average tumor volume reached approximately 150 mm^3. The animals were weighed before administration and the tumor volume was measured. Grouping was randomly performed according to the tumor volume.
# Animals were monitored daily for health and death, and routine examinations include observation of the effect of tumor growth and drug treatment on the daily performance of the animals, such as behavioral activities, food and water intake, weight changes (measured once every other day), appearance, or other abnormal conditions. Animal mortality and side effects within each group were recorded based on the number of animals in the group.
# Tumor diameters were measured 2-3 times weekly using a vernier caliper.
# The tumor volume was calculated as follows: […]
# where a and b represent the long and short diameters of the tumor, respectively.
# The anti-tumor therapeutic effect of the compound was evaluated by tumor growth inhibition rate TGI (%) or relative tumor proliferation rate T/C (%).
# TGI (%) was calculated as follows: […]
# T/C (%) was calculated as follows: […]
# where TRTV represents the relative tumor volume of the treatment group; CRTV represents the relative tumor volume of the solvent control group.
# Based on the results of tumor measurement, the relative tumor volume (RTV) was calculated as follows: […]
# where V0 represents the average tumor volume measured at the time of grouping and administration (i.e., d0), Vt represents the average tumor volume in a certain measurement, and TRTV and CRTV take the data on the same day.
# After the completion of the experiment, tumors were weighed, and the percentage of Tweight/Cweight was calculated, where Tweight and Cweight represent the tumor weights of the treatment group and the solvent control group, respectively.
# Data calculation and analysis: T test was employed for comparison between two groups. One-way ANOVA was employed for comparison between three or more groups. If there is a significant difference in F-values, multiple comparisons should be made after ANOVA analysis. All data analyses were performed with SPSS 17.0. p<0.05 was defined as a significant difference.
# [2] = test system: MIA PaCa-2 cell line (K-RAS G12C); assay: cells; format: cell-based; details: Homo sapiens, MIA PaCa-2, 96 h, read-out: MIA PaCa-2 (K-RAS G12C) IC50
# Procedure: (§1) a) On day 1, seed cells were placed in T75 a flask. b) On day 3, the medium was taken out and washed once with DPBS. c) Cells were trypsinized with 2 mL TrypLE™ Express enzyme at room temperature (RT) or 37° C. until cells detached. d) 5 mL of fresh medium was added to suspend the cells, and then the suspension was centrifuged at 1000 rpm and room temperature for 5 min. e) The supernatant was discarded, and the cells were resuspended in 5 mL of fresh medium and counted using Countess™ H. f) The cells were seeded back into the T75 flask for further culture or placed into an assay plate for 3D cell proliferation assay.
# (§2) The cells were seeded at a density of 600 cells/well in a 384-well plate with 40 μL of medium per well and a final DMSO concentration of 0.5%. b) On day 4, a 3D CTG reagent was added to each well, followed by shaking at room temperature for 1 h. c) The signals were recorded using Envision.
# (§3) a) Robustness was examined using 0.5% DMSO and data of blank control medium: H=mean (DMSO); L=mean (medium); SD (H)=STDEV (DMSO); SD (L)=STDEV (medium);
# (§4) Y=peak valley value+(peak top value−peak valley value)/(1+10^((Log IC50−X)×HillSlope));
# (§5) X: logarithm of compound concentration; Y: percent inhibition (% inhibition); Peak top and peak valley values: the plateau period units are the same as Y; log IC50: the same logarithmic unit as X; HillSlope: slope coefficient or Hill slope.
# [3] = test system: H1373 cell line (K-RAS G12C); assay: cells; format: cell-based; details: Homo sapiens, NCI-H1373, 96 h, read-out: H1373 (K-RAS G12C) IC50
# Procedure: as §1, §2, §3, §4, §5
# [4] = test system: H358 cell line (K-RAS G12C); assay: cells; format: cell-based, human; details: Homo sapiens, NCI-H358, 96 h, read-out: H358 (K-RAS G12C) IC50
# Procedure: as §1, §2, §3, §4, §5
# [5] = in vitro; details: human, plasma
# Procedure: (§6) To examine the stability of the test compounds in plasma, representative compounds were selected for evaluation.
# (§7) Preparation of stock solution: a test compound was dissolved in DMSO to prepare a 1 mM stock solution for later use; Propantheline Bromide was dissolved in acetonitrile to prepare a 1 mM stock solution as a positive control for later use.
# (§8) To each well was added 2 μL of the stock solution of the test compound and the stock solution of the positive control such that the final concentrations were 5 KM and the concentration of the organic solvent was 0.5%. Each compound was prepared in duplicate, followed by incubation at 37° C. 50 μL of samples were taken from the reaction samples in equal amounts at 0, 30, 60, 120, 180 and 240 minutes, and 450 μL of cold acetonitrile containing an internal standard was added to terminate the reaction. […] 100 μL of the supernatants were transferred to a new plate, dilute with ultra-pure water, and analyzed by LC-MS/MS.
# (§9) Data results were calculated according to peak area ratios.
# (§10) The percentage of remaining compound for each time point was calculated as follows:
# (§11) Remaining percentagemin(%)=peak area ratiosmin/peak area ratiomin×100%
# (§12) where peak area ratios represents the peak area ratio of the test compound to the internal standard compound at t min; peak area ratiomin represents the peak area ratio of the test compound to the internal standard compound at 0 min (initial).
# [6] = in vitro; details: microsomes, pH 7.4
# Procedure: To examine the in vitro metabolic stability of the test compounds in liver microsomes of different species, representative compounds were selected, and their stability was evaluated by measuring the concentration of the test compounds in the incubation system using LC/MS/MS and calculating their intrinsic clearance in the microsome system.
# The method is specifically as follows: each compound was first dissolved in DMSO to prepare a 200 μM working solution and added to the system solution at the time of testing to form a solution with a final concentration of 1 μM.
# The microsomes were stored in a −80° C. freezer.
# Preparation of incubation system: an incubation system was prepared as described in the table below.
# 25 μL, of NADPH or phosphate buffered saline was transferred to the incubation system described above, and 2 μL, of 200 μM of the test compound or verapamil was added. The sample with NADPH added was prepared in duplicate; the NADPH negative sample was prepared in single parallel. 30 μL, of suspension was taken at 0.5, 5, 15, 30 and 60 minutes. The reaction system was terminated by adding 180 μL, of acetonitrile containing an internal standard and vortexed for 10 min. […] 100 μL, of the supernatant was transferred to a feeding plate, and 100 μL, of purified water was added. The mixture was well mixed for UPLC-MS/MS analysis.
# The results based on the data were obtained by calculation according to the peak area ratio, and the peak area was detected through an extracted ion chromatogram.
# The slope value (k) was determined by linear fitting of the natural logarithm of drug elimination percentage over time.
# [7] = human, plasma, 5 μM
# Procedure: as §6, §7, §8, §9, §10, §11, §12
# [8] = Day 0 (at grouping, before administration), 15 mg/kg PO QD group
structure (smiles),measurement,setting,value
"[2H]C([2H])([2H])N1CCC[C@H]1COc1nc2c(c(N3CCN(C(=O)C=C)[C@@H](CC#N)C3)n1)CCN(c1cccc3cccc(Cl)c13)C2 [Compound 41, 2-((S)-1-acryloyl-4-(7-(8-chloronaphthalene-1-yl)-2-(((S)-1-(methyl-d3)pyrrolidin-2-yl)methoxy)-5,6,7,8-tetrahydropyrido[3,4-d]pyrimidin-4-yl)piperazin-2-yl)acetonitrile]",Day 0 Body weight (g) Waverage ± SEM,[1]; [8],22.7 ± 0.4 g
same,Day 0 Tumor volume (mm^3) Vaverage ± SEM,[1]; [8],151 ± 8 mm^3
same,Day 21 Body weight (g) Waverage ± SEM,"[1]; Day 21, 15 mg/kg PO QD",23.4 ± 0.6 g
same,Day 21 Tumor volume (mm^3) Vaverage ± SEM,"[1]; Day 21, 15 mg/kg PO QD",168 ± 20 mm^3
same,Tumor inhibition rate TGI (%),"[1]; Day 21, 15 mg/kg PO QD",97.0%
same,Tumor regression,"[1]; Day 21, 15 mg/kg PO QD, animals with regression / group of 8",2/8
same,IC50,[2],310 pM
same,IC50,[3],180 pM
same,IC50,[4],280 pM
same,half-life at 5 μM,[5],119 min
same,half-life at 1 μM,"[6]; ICR (CD-1), mouse",14.6 min
same,microsomal CLint at 1 μM,"[6]; ICR (CD-1), mouse",95.3 µL/min/mg
same,half-life at 1 μM,[6]; human,26 min
same,microsomal CLint at 1 μM,[6]; human,53.4 µL/min/mg
same,Remaining percentage (%) 0 min,[7]; 0 h,100.00%
same,Remaining percentage (%) 30 min,[7]; 0.5 h,96.01%
same,Remaining percentage (%) 60 min,[7]; 1 h,75.85%
same,Remaining percentage (%) 120 min,[7]; 2 h,56.99%
same,Remaining percentage (%) 180 min,[7]; 3 h,34.80%
same,Remaining percentage (%) 240 min,[7]; 4 h,26.83%
